Assay results from patent US9574182B2, “Monoterpene glycosyltransferase originating from hop and method for using same” (SUNTORY HOLDINGS LIMITED, priority 2012, dated 2017).

Assays:
Type in all cases: biochemical, Humulus lupulus
[1] = test system: HlUGT119; test: Monoterpene glycosylation by recombinant HlUGT119 (UDP-glucose, LC-MS); settings: 2 mM UDP-glucose, 0.2 mM sugar acceptor substrate, pH 7.5, 30° C., 1 hour
Procedure: (§1) Next, these proteins were used to test their reactivity with monoterpenes by LC-MS analysis. Standard enzyme reaction conditions are as follows. A reaction solution (2 mM UDP-glucose, 0.2 mM sugar acceptor substrate, 100 mM potassium phosphate buffer (pH 7.5), 25 μl purified […] enzyme solution) was prepared in a volume of 50 μl with distilled water and reacted at 30° C. for 1 hour. The enzyme reaction solution (5 μl) was analyzed by LC-MS under the following conditions. LC Conditions Column: CAPCELL PAK C18-UG120 (2.0 mm I.D.×150 mm) Mobile phase: A: water (containing 0.05% formic acid), B: acetonitrile Gradient: linear concentration gradient of B from 15% to 90% over 15 minutes Flow rate: 0.2 ml per minute Column oven: 40° C. MS Conditions ESI (negative mode) SIM mode: (m/z 315, 338, 361, 363, 331, 354, 377, 429, etc.) The above LC-MS analysis was conducted for each of HlUGT119, HlUGT127, HlUGT279 and HlUGT251.

[2] = test system: HlUGT251; test: Monoterpene glycosylation by recombinant HlUGT251 (UDP-glucose, LC-MS); settings: for monoglycosylation activity of HlUGT251 on the monoterpene: 2 mM UDP-glucose, 0.2 mM sugar acceptor substrate, pH 7.5, 30° C., 1 hour, LC-MS
Procedure: as §1

[3] = test system: HlUGT127; test: Monoterpene glycosylation by recombinant HlUGT127 (UDP-glucose, LC-MS); settings: 2 mM UDP-glucose, 0.2 mM sugar acceptor substrate, pH 7.5, 30° C., 1 hour
Procedure: as §1

[4] = test system: HlUGT279; test: Monoterpene glycosylation by recombinant HlUGT279 (UDP-glucose, LC-MS); settings: 2 mM UDP-glucose, 0.2 mM sugar acceptor substrate, pH 7.5, 30° C., 1 hour
Procedure: as §1

| Molecule | monoglycosylation activity of HlUGT119 on the monoterpene [1] | monoglycosylation activity of HlUGT251 on the monoterpene [2] | monoglycosylation activity of HlUGT127 on the monoterpene [3] | monoglycosylation activity of HlUGT279 on the monoterpene [4] | amount of product compared with the other three enzymes ([2]; same reaction conditions, ascribed to extremely lower amount of expressed protein) |
| --- | --- | --- | --- | --- | --- |
| CC(C)=CCC/C(C)=C/CO [geraniol, Geraniol] | monoglycosylation activity | monoglycosylation activity | monoglycosylation activity | monoglycosylation activity | – |
| C=CC(C)(O)CCC=C(C)C (stereo not drawn) [linalool, Linalool] | monoglycosylation activity | monoglycosylation activity | monoglycosylation activity | monoglycosylation activity | – |
| HlUGT251: Humulus lupulus monoterpene glycosyltransferase, amino acid sequence SEQ ID NO: 8, expressed as HisTag fusion in E. coli (protein, listed as Humulus lupulus, His tag) MGSISEMMKPHAVCVPFPAQGHVNPMMQLAKLLHSRGFHITYVNTEFNHRRLIRSRGPDSVKGLPDFQFETIPDGLPPSDRDATQEVPPLCDATRKNCLGPFKELLHKLRSCSEVPPVTCIITDGIMTFGIKAAREFGIPEVVFWTASACSFMGYLQYDELVRRGIVPFKDESFMLDGTLDTPIDWIPGIRDVRLRDLPSFLRVTSTDDIMFDFLGSQAKNCLTSSAIIFNTFRELELEVLDSISDMYPNIYTIGPLPMLNRHLPAESQVKSMSTSLWKEDSTCFQWLHKREPNSVVYVNYGSITTMTEDNFREFAWGLANSKHSFVWIVRPDVIMGSNSATVLPEEFFEEIKDRGLLANWCQQKEVLEHSSVGVFLTHCGWNSTVETVCAGVPVICWPFFADQQTNCHFACKTLGIGVEISPDVKREEVTGLVKEMMEGEKGEKMREKASYWKKKAAETTDIGGDSYHDFDKLIKSLGFDGRD | – | – | – | – | smaller amount of product |
